Legend:
[1] = biological target: T1, Proteinase-activated receptor 4 (Homo sapiens, UniProt Q96RI0); experiment: Antagonist activity at human PAR4
T1 sequence (Q96RI0 whole entry): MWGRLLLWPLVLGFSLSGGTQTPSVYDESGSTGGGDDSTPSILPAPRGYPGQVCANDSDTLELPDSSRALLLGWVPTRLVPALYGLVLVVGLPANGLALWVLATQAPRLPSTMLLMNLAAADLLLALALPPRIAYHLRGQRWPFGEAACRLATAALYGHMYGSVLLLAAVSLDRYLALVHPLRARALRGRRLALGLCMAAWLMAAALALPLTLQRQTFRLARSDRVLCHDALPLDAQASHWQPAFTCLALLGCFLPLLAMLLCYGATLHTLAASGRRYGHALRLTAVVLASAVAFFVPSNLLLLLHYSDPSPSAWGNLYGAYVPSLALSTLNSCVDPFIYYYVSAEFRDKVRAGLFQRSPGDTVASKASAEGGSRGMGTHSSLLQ

[2] = biological target: T2, Proteinase-activated receptor 1 (Homo sapiens, UniProt P25116); experiment: Antagonist activity at human PAR1
T2 sequence (P25116 whole entry): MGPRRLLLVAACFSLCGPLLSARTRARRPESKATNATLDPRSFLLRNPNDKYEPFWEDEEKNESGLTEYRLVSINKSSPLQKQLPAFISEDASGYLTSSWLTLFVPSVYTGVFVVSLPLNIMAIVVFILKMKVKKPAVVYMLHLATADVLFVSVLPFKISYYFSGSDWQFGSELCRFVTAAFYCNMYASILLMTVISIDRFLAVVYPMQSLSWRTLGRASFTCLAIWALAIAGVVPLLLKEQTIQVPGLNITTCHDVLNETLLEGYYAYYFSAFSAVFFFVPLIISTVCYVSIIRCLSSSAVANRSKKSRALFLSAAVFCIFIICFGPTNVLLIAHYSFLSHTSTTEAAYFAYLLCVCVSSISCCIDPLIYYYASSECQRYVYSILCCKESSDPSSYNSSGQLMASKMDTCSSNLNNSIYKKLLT

[3] = biological target: T3, Proteinase-activated receptor 2 (Homo sapiens, UniProt P55085); experiment: Antagonist activity at human PAR2
T3 sequence (P55085 whole entry): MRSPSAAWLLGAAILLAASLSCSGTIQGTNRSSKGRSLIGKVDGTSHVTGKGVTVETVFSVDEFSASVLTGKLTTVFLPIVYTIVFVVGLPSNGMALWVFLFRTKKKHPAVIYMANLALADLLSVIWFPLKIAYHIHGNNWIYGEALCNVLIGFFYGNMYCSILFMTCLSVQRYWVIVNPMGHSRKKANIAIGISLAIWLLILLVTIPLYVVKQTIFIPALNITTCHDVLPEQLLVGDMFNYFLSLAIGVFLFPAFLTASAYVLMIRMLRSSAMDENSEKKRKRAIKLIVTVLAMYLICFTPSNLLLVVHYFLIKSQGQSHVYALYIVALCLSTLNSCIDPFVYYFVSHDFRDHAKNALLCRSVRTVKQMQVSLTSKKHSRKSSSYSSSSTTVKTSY

SMILES: C[C@@H](C1CCCCC1)n1c(-c2cc3c(cc2Br)OCO3)nc2cc(C(=O)Nc3ccc(C#N)cc3)ccc21
- IC50 [1]: 380 nM
- IC50 [2]: > 50000 nM
- IC50 [3]: < 2.5 nM
